Changes are numbered by the printed parent chain.
Tests used:
rat = tested on: rat; set-up: method as in Yang et al., Circulation. 2017; conditions: 21 days, rats; ref Yang et al., Circulation. 2017; cited from earlier work
anaesthetised rats = tested on: anaesthetised rats; set-up: method as in 2 sources, ref Read et al. Biochem Pharmacol 2016 ||| ref Yang et al., Circulation. 2017; conditions: cited from earlier work
apelin receptor = assay: DiscoveRx cAMP assay, CHO-K1 stably expressing the apelin receptor; format: cell-based, human; conditions: stably expressing CHO-K1, forskolin stimulated cAMP
Text: (§1) (A) ERK1/2 and (B) eNOS in PAECs and ERK1/2 in (C) control and (D) PAH PASMcs following treatment with 0.1% serum (control), […]
(§2) measures with Tukey’s post-test for multiple comparisons. […]
(§3) difference in down-stream signalling with the endogenous ligands used in our study.
(§4) However, dynamic mass redistribution assays are a widely used (over 400 references in Pubmed) and generally accepted robust label-free technology to measure ligand-induced changes in the mass of cells and provides an integrated cellular response, comprising multiple pathways and cellular events. We believe
(§5) DMR is robust for testing the function of apelin receptor variants, particularly when combined with our radioligand binding assays. […]
(§6) recommended.’ We thank the referee for the recommendation but we were not successful in generating additional data in the apelin receptor variants with downstream signalling functional assays that we carried […]
(§7) We have tried to test the function of apelin receptor variants in a DiscoveRx cAMP assay. The figure below […]
(§8) Provided in the assay kit, CHO-K1 cells stably expressing the apelin receptor (shown in green) responded as […]
(§9) the levels of forskolin stimulated cAMP accumulation and decreasing the fluorescent signal in relative li ght units (RLU). CHO-K1 cells transiently transfected in-house with either wild-type (black), T/M89 (red), or […]

[1] = target: T1, wild-type apelin receptor (Homo sapiens, UniProt P35414); assay: DiscoveRx cAMP assay, CHO-K1 transiently transfected, wild-type; format: cell-based
T1 construct: expressed in transfected cells; host or cells: CHO-K1 (ECACC 85051005), transient, pcDNA3.1
T1 sequence (P35414 1-380): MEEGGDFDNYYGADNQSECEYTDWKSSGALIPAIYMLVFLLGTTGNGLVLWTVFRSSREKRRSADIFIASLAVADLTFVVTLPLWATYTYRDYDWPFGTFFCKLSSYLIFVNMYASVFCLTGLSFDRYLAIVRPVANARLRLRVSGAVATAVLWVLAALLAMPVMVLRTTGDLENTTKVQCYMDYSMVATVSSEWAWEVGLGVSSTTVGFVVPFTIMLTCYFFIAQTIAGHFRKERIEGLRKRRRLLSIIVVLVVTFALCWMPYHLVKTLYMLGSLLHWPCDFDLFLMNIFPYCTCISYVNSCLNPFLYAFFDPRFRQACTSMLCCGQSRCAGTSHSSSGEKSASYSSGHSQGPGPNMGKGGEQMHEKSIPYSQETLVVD
Text: (1 picture or pasted object on this page, not shown here)

human apelin receptor = target: T2, human apelin receptor (Homo sapiens, UniProt P35414); set-up: method as in 2 sources, ref Read et al., 2016, PMID:27475715 ||| ref Read et al. Biochem Pharmacol. 2016; conditions: cited from earlier work
T2 sequence (P35414 1-380): T1 sequence (P35414 1-380)

[2] = tested on: apelin receptor in human, rat and mouse heart; set-up: method as in Read et al. Biochem Pharmacol. 2016; conditions: ref Read et al. Biochem Pharmacol. 2016; cited from earlier work
apelin receptor NxStaR = target: T3, apelin receptor NxStaR (Homo sapiens, UniProt P35414, F214L/I224A/N112A/S298A/T207M/T87V); assay: SPR, pH dependence (Biacore 8K+), NxStaR; conditions: 5% DMSO, 10 °C, single determination
T3 sequence (P35414 1-380 T87V/N112A/T207M/F214L/I224A/S298A): T1 sequence (P35414 1-380) with T87V, N112A, T207M, F214L, I224A, S298A
Experimental: (§10) Both were equipped with a NTA sensor chip (Cytiva). […] 0.5 M EDTA pH 8.0 was injected for 60 s at 5 µL/min followed by a 60 s injection of run buffer containing 0.5 mM NiCl2. The surface was activated with a 1:1 mixture of 0.1 M NHS and 0.5 M EDC at a flow rate of 10 µL/min for 420 s. The receptors were injected at a concentration of 1 µM at 5 µL/min until a surface response of 5000 RU was achieved. The surface was equilibrated for 12 h in buffer before commencing experiments.
(§11) Compound and peptide binding was measured in pH 7.5 buffer previously described and in buffer at pH 6.0 comprising of 0.025 M MES, pH 6.0, 0.15 M NaCl, 0.02% DDM, 5% DMSO. The analyses were run in single-cycle format with four concentration points in a twofold dilution series. […] The association phase was 60 s for each concentration and the dissociation phase was 300 s. There were 4 blank cycles between compound injections.
(§12) The data were processed using Biacore T200 Evaluation Software (Version 2.0, Cytiva) and Biacore Insight Evaluation Software (Version 5.0, Cytiva). Sensorgrams were reference and blank subtracted before fitting with 1:1 binding model which accounted for drift, bulk shift and mass transport.

R/H168 apelin receptor = assay: DiscoveRx cAMP assay, CHO-K1 transiently transfected, R/H168; format: cell-based, human
Text: as §1, §2, §3, §4, §5, §6, §7, §8, §9

Chrom logD = format: physicochemical; conditions: chromatographic
T/M89 apelin receptor = assay: DiscoveRx cAMP assay, CHO-K1 transiently transfected, T/M89; format: cell-based, human
Text: as §1, §2, §3, §4, §5, §6, §7, §8, §9

[3] = target: T4, R/H168^4.64 variant NxStaR (Homo sapiens, UniProt P35414, F214L/I224A/N112A/R168H/S298A/T207M/T87V); assay: SPR, pH dependence (Biacore 8K+), R/H168^4.64 NxStaR; conditions: 5% DMSO, 10 °C, single determination
T4 sequence (P35414 1-380 T87V/N112A/R168H/T207M/F214L/I224A/S298A): T1 sequence (P35414 1-380) with T87V, N112A, R168H, T207M, F214L, I224A, S298A
Experimental: as §10, §11, §12

[4] = ref Read et al. Biochem Pharmacol. 2016

Molecule	blood pressure, chronic ELA treatment (rat)	systemic vasodilatation (anaesthetised rats; carotid artery catheterisation, ref Yang et al., Circulation. 2017)	cAMP response (apelin receptor)	stroke volume and cardiac output (anaesthetised rats; anaesthetised rats, ref Read et al. Biochem Pharmacol 2016)	peripheral arterial pressure (anaesthetised rats; i.v. CMF-019 potassium salt, anaesthetised rat, ref Read et al. Biochem Pharmacol 2016)	left ventricular contractility (anaesthetised rats; i.v. CMF-019 potassium salt, anaesthetised rats, ref Read et al. Biochem Pharmacol 2016)	cAMP response [1]	bias factor cAMP vs receptor internalisation (human apelin receptor; [4])	bias factor cAMP vs β-arrestin recruitment (human apelin receptor; [4])	cAMP potency versus [Pyr1]apelin-13 (human apelin receptor; [4])	bias towards G protein pathway over beta-arrestin (human apelin receptor; ref Read et al., 2016, PMID:27475715)	competition for specific binding of apelin [2]	Kd (apelin receptor NxStaR; pH 6.0 (MES), 0.02% DDM)	Kd (apelin receptor NxStaR; pH 7.5, 0.02% DDM)	cAMP response (R/H168 apelin receptor)	Chrom logD (Chrom logD)	cAMP response (T/M89 apelin receptor)	Kd ([3]; pH 6.0 (MES), 0.02% DDM)	Kd ([3]; pH 7.5, 0.02% DDM)
NCLQRRCMPLHSRVPFP [ELA, endogenous peptide Elabela/Toddler]	did not significantly affect systemic blood pressure	caused acute systemic vasodilatation																	
CCC(CC)n1c(Cc2cccs2)nc2cc(C(=O)N[C@H](CC(=O)O)CC(C)C)ccc21 [CMF-019]			reducing	increased stroke volume and cardiac output	reduced peripheral arterial pressure	dose dependent increases in left ventricular contractility	did not show an observable response	~ 5000	~ 400	comparable potency to [Pyr1]apelin-13	2250	competes for the specific binding of apelin	3.4 nM	6.1 nM	did not show an observable response	3.14	did not show an observable response	14.6 nM	68.7 nM
